Measurements: publication PMC6271282, “Playing with Opening and Closing of Heterocycles: Using the Cusmano-Ruccia Reaction to Develop a Novel Class of Oxadiazolothiazinones, Active as Calcium Channel Modulators and P-Glycoprotein Inhibitors” (Molecules, 2014)

Legend:
[1] = target: T1, L-type Ca2+ channel (LTCC, Cav1.2) (Rattus norvegicus, UniProt P22002); assay: whole-cell patch clamp, IBa(L); also potentiates [3H]diltiazem binding in rat cardiomyocytes ([…]); assay type: cell-based
T1 construct: gene Cacna1c; native channel in single rat tail main artery myocytes

[2] = target: T1, L-type Ca2+ channel (LTCC, Cav1.2); assay: whole-cell patch clamp, IBa(L); assay type: cell-based

T1 sequence (P22002 whole entry): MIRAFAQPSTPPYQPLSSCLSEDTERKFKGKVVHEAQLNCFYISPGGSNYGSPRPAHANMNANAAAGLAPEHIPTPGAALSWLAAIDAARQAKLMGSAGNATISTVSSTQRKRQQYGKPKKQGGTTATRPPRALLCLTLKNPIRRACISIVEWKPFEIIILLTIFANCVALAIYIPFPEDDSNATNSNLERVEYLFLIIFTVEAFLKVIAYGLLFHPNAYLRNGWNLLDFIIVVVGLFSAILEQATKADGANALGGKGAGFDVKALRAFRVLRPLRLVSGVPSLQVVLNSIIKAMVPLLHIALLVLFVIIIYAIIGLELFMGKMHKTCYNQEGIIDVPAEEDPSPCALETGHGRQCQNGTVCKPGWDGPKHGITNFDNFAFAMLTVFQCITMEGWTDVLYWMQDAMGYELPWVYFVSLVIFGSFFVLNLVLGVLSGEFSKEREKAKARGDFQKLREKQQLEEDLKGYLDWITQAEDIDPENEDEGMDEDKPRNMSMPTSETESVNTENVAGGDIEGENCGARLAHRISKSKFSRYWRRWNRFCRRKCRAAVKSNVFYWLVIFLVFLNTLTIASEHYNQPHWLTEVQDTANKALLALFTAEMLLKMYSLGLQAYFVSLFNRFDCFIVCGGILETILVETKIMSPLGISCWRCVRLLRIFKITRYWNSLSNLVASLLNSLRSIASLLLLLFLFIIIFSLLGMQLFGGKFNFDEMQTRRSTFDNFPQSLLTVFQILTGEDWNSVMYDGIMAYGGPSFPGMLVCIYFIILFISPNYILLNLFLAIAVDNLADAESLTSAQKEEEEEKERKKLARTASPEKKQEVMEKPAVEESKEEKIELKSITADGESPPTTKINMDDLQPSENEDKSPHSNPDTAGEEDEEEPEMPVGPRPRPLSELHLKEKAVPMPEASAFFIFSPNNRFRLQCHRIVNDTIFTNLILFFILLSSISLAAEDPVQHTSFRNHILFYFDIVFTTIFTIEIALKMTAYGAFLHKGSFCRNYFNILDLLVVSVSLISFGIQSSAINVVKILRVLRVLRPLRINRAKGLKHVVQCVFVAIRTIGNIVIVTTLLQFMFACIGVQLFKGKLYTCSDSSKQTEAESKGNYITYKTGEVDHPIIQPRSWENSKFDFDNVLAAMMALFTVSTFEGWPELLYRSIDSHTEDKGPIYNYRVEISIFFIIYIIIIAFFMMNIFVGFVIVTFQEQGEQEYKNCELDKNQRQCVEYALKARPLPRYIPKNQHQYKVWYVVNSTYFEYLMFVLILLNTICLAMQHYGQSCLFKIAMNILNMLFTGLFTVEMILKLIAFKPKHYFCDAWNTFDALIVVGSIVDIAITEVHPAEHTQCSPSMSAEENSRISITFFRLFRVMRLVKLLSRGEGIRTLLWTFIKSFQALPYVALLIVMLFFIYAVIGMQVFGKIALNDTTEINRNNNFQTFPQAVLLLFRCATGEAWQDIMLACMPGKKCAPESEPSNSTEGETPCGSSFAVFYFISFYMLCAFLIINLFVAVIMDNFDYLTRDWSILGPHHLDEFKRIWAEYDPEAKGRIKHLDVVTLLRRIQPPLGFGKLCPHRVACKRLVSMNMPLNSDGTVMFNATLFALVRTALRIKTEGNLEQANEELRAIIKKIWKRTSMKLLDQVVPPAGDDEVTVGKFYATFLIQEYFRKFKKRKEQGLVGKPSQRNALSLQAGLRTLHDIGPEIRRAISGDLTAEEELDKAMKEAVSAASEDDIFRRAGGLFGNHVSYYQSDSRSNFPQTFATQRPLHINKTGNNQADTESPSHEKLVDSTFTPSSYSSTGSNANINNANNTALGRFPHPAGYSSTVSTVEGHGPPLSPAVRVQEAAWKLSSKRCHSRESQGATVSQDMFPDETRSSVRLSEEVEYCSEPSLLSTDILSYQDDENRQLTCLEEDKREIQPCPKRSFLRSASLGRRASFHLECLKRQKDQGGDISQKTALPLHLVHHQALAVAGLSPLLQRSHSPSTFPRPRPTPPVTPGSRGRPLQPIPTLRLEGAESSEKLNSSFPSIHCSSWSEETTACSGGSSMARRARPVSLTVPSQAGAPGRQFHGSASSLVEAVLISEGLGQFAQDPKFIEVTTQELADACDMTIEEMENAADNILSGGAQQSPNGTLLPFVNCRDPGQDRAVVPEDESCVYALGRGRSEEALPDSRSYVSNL

O=c1onc2n1-c1ccc(Cl)cc1SC2(O)c1ccc(Br)cc1 (centres unmarked) [compound 30, 4-(4-Bromophenyl)-7-chloro-4-hydroxy-4H-[1,2,4]oxadiazolo[3,4-c][1,4]benzothiazin-1-one] gave an IC50 [1] of ~3 µM.

CC1=CSC(OCCN2CCCCC2)(c2ccc(Br)cc2)c2noc(=O)n21 (centres unmarked) [compound 32, 8-(4-Bromophenyl)-5-methyl-8-(2-piperidin-1-ylethoxy)-8H-[1,2,4]oxadiazolo[3,4-c][1,4]thiazin-3-one] was tested, and the IC50 [2] was ~30 µM.
